Tests used:
[1] = system: murine melanome cell line B16-F10; assay: melanin synthesis, colorimetric assay, basal and after α-MSH; type: cell-based; details: Mus musculus, alpha MSH 1 μM, read-out: inhibition of alpha MSH activity (melanin increase)
Protocol: The modulating effect of unsaturated fatty hydroxy acid derivatives on melanogenesis was analysed. To do this, measurement of melanin synthesis by colorimetric assay was performed on a murine melanome cell line: line B16-F10.
The effect of products was investigated in a basal situation and after stimulation by α-MSH in order to determine depigmenting capacity.
Levels of extracellular and intracellular melanin were measured by spectrophotometry at a wavelength of 405 nm according to the protocol described by Anob et al., 1999. The amount of pigment was determined using a standard melanin range and analysis on Microwin software (Berthold Biotechnologies). A total protein assay was carried out for intracellular melanin samples by means of the BCA-Copper method at 540 nm. The standard range was made up using standard protein BSA (Bovine Serum Albumin).

[2] = system: intracellular AOSs, fibroblast line L929; assay: in vitro assay of intracellular AOSs (H2DCF-DA probe) after H2O2/iron oxidative stress; type: cell-based, murin; details: Mus musculus, pre-incubation 3 h, L929, read-out: Percentage inhibition of the intracellular production of AOS; for inhibition at 0.0002 µg/mL: 0.2 ng/ml
Source text: We set up an in vitro study model of oxidative stress induced by H2O2/iron as H2O2 generates huge amounts of intracellular AOSs as a result of a chain reaction triggered by oxidation of membrane lipids.
This technique is based on the use of a fluorescent probe, 6-carboxy-2′,7′-dichlorodihydro fluorescein diacetate, di (acetoxymethyl ester) (H2DCF-DA) which once it penetrates into the cell is deacetylated by intracellular esterases and thus forms H2DCF. This product is oxidized by intracellular AOSs into a highly fluorescent compound: 2′,7′-dichlorofluorescein (DCF) (Suematsu M et al., 1996, Free Radicals Practical Approach, Punchard ed. P 83-99).
The materials and methods used for in vitro assay of intracellular AOSs are given below. • a) Cell tool • Cutaneous murin fibroblast cell line L929. • b) Materials • 96 well flat based microplate. • Cytofluor II cytofluorameter: Ref. PERCEPTIVE BIOSYSTEMS. • c) Reagents • Cell culture reagents: • Dulbecco's Modified Eagle Medium as the culture medium (DMEM) • Foetal calf serum • Phosphate buffer PBS pH 7.4 • Trypsin EDTA (1X) Fluorescent probe • 6-carboxy-2′,7′-dichlorodihydrofluorescein diacetate, di(acetoxymethyl ester) (PM.675,43) Cell stimulation products • Hydrogen peroxide (H2O2) 3% Ref. GIFRER (Gifrer Barbezat Laboratory) • Ferrous ammonium sulphate (Fe^2+) • Ferric ammonium sulphate (Fe^3+) • d) Products tested:
For the evaluation of unsaturated fatty hydroxy acid derivatives, the dilutions are prepared in freshly prepared culture medium for a concentration range of 0.02, 0.2, 2 and 20 ng/ml. • e) Protocol. Cell culturing.
Cells from the fibroblast line L929 were cultured in 96-well flat base microplates in 100 μl of DMEM supplemented with 10% foetal calf serum. These were incubated overnight at 37° C. in a humid atmosphere at 5% CO2. The blank plate without cells was evaluated using 6 wells.
Dilutions of the products to be tested and reference molecule were made up in culture medium without foetal calf serum then deposited in 7 wells at a rate of 100 μl per well.
Cells were then incubated for 3 hours at 37° C. in a humid atmosphere at 5% CO2.
Cells were rinsed in PBS 1X at a rate of 100 μl per well. They were then incubated for 30 minutes at 37° C. in a humid atmosphere at 5% CO2 with 50 μl of the H2DCF-DA probe at 5 μM.
After 30 minutes of contact with the probe alone, cells were incubated for 30 minutes at 37° C. in a humid atmosphere at 5% CO2 with the addition of 25 μl of H2O2 at 800 μM and 25 μl of ferrous iron and ferric iron solution at 8 mM in order to obtain final concentrations of 200 μM of H2O2 and 2 mM of ferrous iron and ferric iron.
Cells were then rinsed with PBS 1X at a rate of 100 μl per well then incubated for 30 minutes at 37° C. in a humid atmosphere at 5% CO2 with 100 μl of PBS 1X.
This incubation for 1 h 30 minutes at 37° C. allows intracellular esterases to deacetylate the probe into H2DCF which can be oxidized by the intracellular AOSs into DCF: a fluorescent compound whose formation is proportional to the quantity of intracellular AOSs.
The intensity of fluorescence is read on a cytofluorimeter at λexcitation=485 nm and λemission=530 nm. This reflects the amount of intracellular AOS produced.
The ratio below makes it possible to calculate the % protection against the production of intracellular AOSs for each product concentration tested (because the intensity of fluorescence or IF reflects the release of intracellular AOSs)
• Pre-incubation: 3 h • Number of tests=3 for all compounds. • Number of tests=18 for vit. E

desaturase DES2 = assay: keratinocyte differentiation, real-time RT-PCR of DES2 transcripts; type: cell-based, human; details: NHK, 48 hours
Protocol: (§1) Normal human keratinocytes (NHK) proliferate and differentiate in vitro, forming stratified layers which mimic the basal organisation of the skin. Extracellular calcium concentrations in excess of 0.1 mM initiate a cascade of genome and non-genome events which take the keratinocytes from a proliferative phase towards a differentiation phase. Keratinocyte differentiation can then be evaluated by studying the expression of several markers such as keratins 1 and 10, transglutaminase 1, desaturase DES2, involucrine, FATP4 and ABCG1 transporters. We therefore evaluated the effect of certain hydroxyalcene carboxylic acids in an in vitro culture model.
(§2) Normal human keratinocytes are isolated from skin explants. They are cultured in KSFM medium (Gibco) with a low calcium content (0.1 mM) containing 25 μg/ml of BPE (bovine pituitary extract) and […] of EGF (epithelium growth factor). 24 hours after culturing, differentiation is triggered by the addition of calcium (final concentration 1.2 mM). The active ingredients are added or not at the same time as calcium at concentrations of 100 and 1 μg/ml in order to determine whether or not they have a potentialising effect on differentiation. Cells were then analysed 48 hours after the addition of calcium and these products.
(§3) Total RNA was extracted under cold conditions from keratinocytes.
(§4) After reverse transcription of mRNA into cDNA, PCRs were made up in 96 well plates (iCycler quantitative PCR apparatus, BioRad). Expression of transcripts of transglutaminase, desaturase (DES2), ABCG1 and FATP4 were standardized with respect to the expression of reference genes (GAPDH, UBC, HPRT).

[3] = system: membrane lipids, fibroblast line L929; assay: TBARS test, lipid peroxidation after H2O2/Fe2+/Fe3+; type: cell-based, murin; details: 0.02 ng/ml, pretreated 16 hours
Source text: In order to evaluate membrane changes, we measured lipid peroxidation by in vitro assay of complexes between the products of lipid oxidation and thiobarbituric acid. These complexes are called TBARS (thiobarbituric acid reactive substances) and give the test its name: TBARS Test.
In order to mimic chemical oxidative stress, we treated a fibroblast line (L929) with a complex consisting of hydrogen peroxide (H2O2) and iron (Fe^2+/Fe^3+) thus reconstituting the Fenton reaction which is the source of oxygenated free radicals and particularly the hydroxyl radical (OH°) (D. A Vessey et al. 1992): H2O2+Fe^2+→OH°+OH^−+Fe^3+
The products were evaluated on a murin fibroblast line L929. Cells were pretreated with different concentrations of the product for 16 hours and were then stimulated with the H2O2/Fe^2+/Fe^3+ complex (200 μM−1 mM) for 1 hour. • Stock solutions: 100 mg/ml ethanol, 4° C. • Final solutions: 0.02 ng/ml.
Peroxidation of membrane lipids was analysed by measuring TBARS (Protocol ref. PLN°2, according to Morliere et al, 1991).
[…]. TBARS assays are therefore expressed in pmole/μg of protein. Proteins and TBARS are assayed in the intracellular medium.
Using the TBARS calculation in pmole/μg protein, we calculated the protective efficacy of various products against the oxidation of lipid membranes.
Four separate experiments were carried out. Several compounds were evaluated in the course of these experiments (the test only allows 10 molecules to be evaluated at one time). The compounds were evaluated several times and were chosen as a function of the results obtained in another test which also measured anti-radical activity (assay test for activated oxygen species).
The model used in this experiment (Fenton reaction) triggers considerable lipid peroxidation of the L929 fibroblasts. This massive release of the hydroxyl radical OH° thus generates oxidative stress in the cells, particularly in the membranes. However, in this type of oxidative reaction, the products resulting from lipid peroxidation are internalized in the cells and TBARS are therefore assayed in the intracellular medium.

transglutaminase 1 (TG1) = assay: keratinocyte differentiation, real-time RT-PCR of transglutaminase 1 transcripts; type: cell-based, human; details: NHK, 48 hours
Protocol: as §1, §2, §3, §4

FATP4 = assay: keratinocyte differentiation, real-time RT-PCR of FATP4 transcripts; type: cell-based, human; details: NHK, 48 hours
Protocol: as §1, §2, §3, §4

ABCG1 = assay: keratinocyte differentiation, real-time RT-PCR of ABCG1 transcripts; type: cell-based, human; details: NHK, 48 hours
Protocol: as §1, §2, §3, §4

Interleukin 8 = assay: release of Interleukin 8 by keratinocytes NHK stimulated with PMA + calcium ionophore A23187 (ELISA); type: cell-based, human; details: 3 μg/ml, keratinocytes, PMA + A23187 6 hours
Protocol: In this study, carried out using 96 well plates, we evaluated the activity of hydroxyl alkine acids on the production of Interleukin 8 produced in the keratinocytes by phorbol ester PMA and calcium ionophore A23187.
A suspension of keratinocytes in supplemented KSFM was divided between 96 well plates (3.10^4 cells/wells) and incubated for 16 hours at 37° C. under an atmosphere of 5% CO2. The keratinocytes were then rinsed with PBS in order to eliminate non adhering cells then exposed to the products to be tested included in non supplemented KSFM (which could interfere with the assay).
The concentration tested in culture was 3 μg/ml. This was retained after a preliminary test to evaluate cytotoxicity (neutral red) and is not cytotoxic.
3 wells were used for each treatment. Cells were preincubated for 60 minutes with the products to be tested then stimulated, in parallel to negative controls without stimulant: Phorbol Myristate Acetate (PMA) 1 μm+Calcium ionophore (A23187) 0.1 μm.
Incubation for 6 hours at 37° C. in a humid air atmosphere containing 5% CO2.
The culture medium for each of the wells was recovered, centrifuged at 3000 rpm and stored at −80° C.
Cytokine assay: IL8 was assayed using the ELISA kit immunoenzyme method (immunotech).
The results are given as percentage activity/stimulated control.
The compounds according to the invention were evaluated in terms of anti-inflammatory activity on the release of Interleukin 8 by human keratinocytes NHK stimulated by phorbol ester PMA+calcium ionophore A23187.

prostaglandin 6KF1α = assay: production of prostaglandin 6KF1α by keratinocytes stimulated with calcium ionophore A23187 (ELISA); type: cell-based; details: 3 μg/ml, A23187 1 μm 5 hours
Protocol: A suspension of keratinocytes in DMEM 10% foetal calf serum was divided into 6 well plates (1.2. 106cells/wells) and incubated for 16 hours at 37° C. in a 5% CO2 atmosphere. The keratinocytes were then rinsed with PBS in order to eliminate non adhering cells then exposed to the products to be tested included in DMEM without foetal calf serum (which could interfere with the assay).
The concentration tested in culture was 3 μg/ml. This was retained as the test concentration after a preliminary evaluation test for cytotoxicity (neutral red) and is not cytotoxic.
For each treatment, three wells were tested. Cells were pre-incubated for 60 minutes with the products to be tested then a stimulating agent was added to stimulate the arachidonic acid cascade (calcium ionophore) which was added for 5 hours: calcium ionophore A23187 was used at a concentration of 1 μm.
After 5 hours in culture, the culture medium for each well was recovered, centrifuged at 3000 rpm and stored at −80° C.
The production of prostaglandin 6KF1α for each of the tests was measured using a EUROMEDEX Elisa Kit.
Results are expressed as the percentage activity/stimulated control.

Row | Structure (SMILES) | inhibition at 0.0002 µg/mL [2] [%] | Induction Factor vs Control (CaCl2 1.2 mM) DES2 (desaturase DES2; 1 μg/ml) | Induction Factor vs Control (CaCl2 1.2 mM) DES2 (desaturase DES2; 100 μg/ml) | % membrane lipid protection, Mean [3] [%] | Induction Factor vs Control (CaCl2 1.2 mM) TG1 (transglutaminase 1 (TG1); 1 μg/ml) | Induction Factor vs Control (CaCl2 1.2 mM) TG1 (transglutaminase 1 (TG1); 100 μg/ml) | Induction Factor vs Control (CaCl2 1.2 mM) FATP4 (FATP4; 1 μg/ml) | Induction Factor vs Control (CaCl2 1.2 mM) FATP4 (FATP4; 100 μg/ml) | Induction Factor vs Control (CaCl2 1.2 mM) ABCG1 (ABCG1; 1 μg/ml) | Induction Factor vs Control (CaCl2 1.2 mM) ABCG1 (ABCG1; 100 μg/ml) | % inhibition of IL-8 release (Interleukin 8) | % inhibiting activity of evaluated molecules on the production of PG6KF1α Inflammation (prostaglandin 6KF1α) [%] | other results
1 | Oc1ccc(O)cc1 [hydroquinone] |  |  |  |  |  |  |  |  |  |  |  |  | inhibition at 1 µg/mL ([1]; 1 μg/ml): 60%
2 | O=C(O)C(F)=CCCCCCCCO [n=6, R=H, Rn=H, R1=F, 10-hydroxy-dec-2-fluoro-2 enoic acid] | 4 | 1.3 | 10.3 | 40.65 | 1.2 | 7.8 | 1.0 | 1.9 | 1.3 | 6.3 |  |  | inhibition at 20 pg/mL ([2]; 0.02 ng/ml): 15%; inhibition at 0.002 µg/mL ([2]; 2 ng/ml): 5%; inhibition at 0.02 µg/mL ([2]; 20 ng/ml): -9%
3 | O=C(O)/C=C/CCCCCCCO [n=6, R=H, Rn=H, R1=H, DHA] | 33 | 1.7 | 11.5 | 52.91 | 1.1 | 12.3 | 1.2 | 2.5 | 1.9 | 6.6 |  |  | 
4 | O=C(O)C(F)=CCCCCCCCCCO [n=8, R=H, Rn=H, R1=F, 12-hydroxy-dodeca-2-fluoro-2-enoic acid] |  |  |  |  |  |  |  |  |  |  | Non-active | 44 | 
5 | O=C(O)/C=C/CCCCCCCCCO [n=8, R=H, Rn=H, R1=H, 12-hydroxy-dodeca-2t-enoic acid] |  |  |  |  |  |  |  |  |  |  | Non-active | 32 | 
6 | O=C1O[C@H]([C@@H](O)CO)C(O)=C1O [vitamin C] |  |  |  |  |  |  |  |  |  |  |  |  | inhibition at 40 µg/mL ([1]; 40 μg/ml): 60%
